From patent US10308926B2, “Stablized EZH2 peptides” (DANA-FARBER CANCER INSTITUTE, INC., priority 2013, dated 2019)
Bridges are numbered along the chain shown (N, C = ends). Where no end group is shown, it is not given here. [ ]: non-standard residue; d: D form. S5 = C=CCCC[C@](C)(N)C(=O)O; Nle = CCCC[C@H](N)C(=O)O

Legend:
EED [1] = target: T1, EED (Homo sapiens, UniProt O75530); assay: Fluorescence polarization binding of FITC-labeled SAH-EZH2 peptides to EED; details: FITC-peptide 25 nM; His-EED 25 nM-8 μM
T1 construct: His (C); made in house; host or cells: Escherichia coli BL21(DE3)
Procedure: SAH-EZH2/EED Binding Analyses: For fluorescence polarization binding analysis, C-terminal His-tagged EED (His-EED) was expressed in Escherichia coli BL21(DE3) using 0.3 mM IPTG for 6 h at room temperature. Bacterial pellet lysate was loaded onto a Ni-NTA column (Novagen) for purification of His-EED. Fluorescinated stapled peptides (final concentration, 25 nM) were incubated with His-EED (serial dilution range, 25 nM-8 μM) at room temperature until equilibrium was reached (˜15 min) Binding activity was measured by fluorescence polarization on a Perkin-Elmer LS50B luminescence 5 spectrophotometer. KD values were determined by following equation,
(§1) [formula] y: Fluorescence polarization, X: Receptor concentration, L: Ligand concentration AF: Minimum value of y, AB: Maximum value of y For anti-FITC pull down-based binding assays, HA-EED was produced in Sf21 cells as described in Shen et al.^29,46. FITC-SAH-EZH2 peptides (final concentration, 50, 10, and 2 nM) were mixed with 2 μl, 0.5 μl and 0.2 μl of anti-FITC antibody (Abcam, 1 mg/ml) respectively, and incubated with 30 μl of protein G agarose (Roche) in 400 μl binding buffer (pH 8.0, 20 mM Tris-HCl, 150 mM NaCl, 0.3% NP40, 10% glycerol). After successive washes, HA-EED (final concentration of 40 nM each tube) was added and incubated for 3 h, followed by detection of HA-EED bound to FITC-SAH-EZH2 peptides by anti-HA (Santa Cruz Biotechnology) western analysis. Detection of FITC-SAH-EZH2 peptides was accomplished by fluorescence scan (GE Healthcare Life Sciences, Typhoon 9200).

HA-EED = target: T2, HA-EED (Homo sapiens, UniProt O75530); assay: Anti-FITC pull down of HA-EED by FITC-SAH-EZH2 peptides; type: binding; details: HA-EED 40 nM
T2 construct: made in house; host or cells: Sf21 insect cells
Procedure: as §1

Ace1, Adam8 and Fcer1a = assay: Real time qPCR of macrophage/monocyte lineage-specific markers in MLL-AF9 cells; type: cell-based, mouse; details: MLL-AF9, 8 days
CD133 = CD133 expression in MLL-AF9 cells; type: cell-based, mouse; details: MLL-AF9, 8 days of treatment
MLL-AF9 = assay: Viability assay on EZH2-dependent cell line MLL-AF9; type: cell-based, mouse
Text: (§2) To compare the functional and mechanism-based cellular activities of SAH-EZH2 and GSK126, a small molecule inhibitor of EZH2 enzymatic activity (McCabe et al. Nature, 492: 108-112, 2012), we conducted viability assays on the EZH2-dependent cell line MLL-AF9 and the EZH2-independent (non-leukemic) cell line 32D. […] We next compared the effects of SAH-EZH2 and GSK126 on lineage specific surface marker expression in MLL-AF9 cells. […] Given the distinct mechanisms of action of SAH-EZH2 and GSK126, we explored whether co-administration of the two compounds would enhance the anti-leukemic effects. […] Thus, SAH-EZH2 manifests a unique mechanism of action by targeting EED, dissociating the EZH2/EED complex, and thereby reduces EZH2 protein levels. As a result, the H3K27Me3 mark is reduced over time and PRC2 transcriptional effects are inhibited, leading to anti-proliferative and induced-differentiation effects on EZH2-dependent leukemia cells.

32D = assay: Viability assay on EZH2-independent cell line 32D; type: cell-based; details: EZH2-independent (non-leukemic)
Text: as §2

EED [2] = target: T1, EED; assay: Competitive fluorescence polarization: displacement of FITC-labeled EZH2(42-68) peptide from EED; type: binding; details: N-terminal acetylated peptides; EED 200 nM, FITC-peptide 20 nM, 30 min
Procedure: The EED binding affinities of SAH-EZH2 and SAH-EZH2(42-68)AC were assessed by their capacities to displace FITC-labeled EZH2(42-68) peptide from EED. Serially diluted acetyl-SAH-EZH2 and the doubly stapled acetyl-SAH-EZH2(42-68)AC (dose range from 2.5 nM to 10 μIM) were incubated with purified EED (200 nM) and FITC-labeled EZH2(42-68) peptide (20 nM) for 30 min, followed by measurement of fluorescence polarization. […] The non-binding EZH2(47-64) construct was used as a negative control.

[3] = system: MDA-MB231 breast cancer cells; assay: Viability of MDA-MB231 breast cancer cells; type: cell-based; details: 8 days, once every other day
Text: (§3) To compare the functional and mechanism-based cellular activities of SAH-EZH2 and GSK126, a small molecule inhibitor of EZH2 enzymatic activity (McCabe et al. Nature, 492: 108-112, 2012), we conducted viability assays on the EZH2-dependent cell line MLL-AF9 and the EZH2-independent (non-leukemic) cell line 32D. […] We next compared the effects of SAH-EZH2 and GSK126 on lineage specific surface marker expression in MLL-AF9 cells. […] Given the distinct mechanisms of action of SAH-EZH2 and GSK126, we explored whether co-administration of the two compounds would enhance the anti-leukemic effects. […]
(§4) To test the anti-proliferative effect of SAH-EZH2(42-68)AC, breast (MDA-MB231) and prostate (DU145) cancer cell lines were treated with SAH-EZH2(42-68)AC at the indicated doses for 8 days and measured for viability by Cell Titer Glo®SAH-EZH2(42-68)AC was added to the culture medium once every other day. […] The cells were treated with SAH-EZH2(42-68)AC at the indicated doses for 6 days on an every other day schedule and then measured for viability using Cell Titer Glo®. […] To test the anti-proliferative effect on chronic myelogenous leukemia, SAH-EZH2(42-68)AC was added to K562 cells at 10 μM every other day and viability was measured at days 2, 4, 6, and 10 using Cell Titer Glo®. […]

[4] = system: DU145 prostate cancer cells; assay: Viability of DU145 prostate cancer cells; type: cell-based; details: 8 days, once every other day
Text: as §3, §4

TC71 = assay: Viability of Ewing Sarcoma cell line TC71, Cell Titer Glo; type: cell-based; details: 6 days, every other day
Procedure: (§5) To test the anti-proliferative effect of SAH-EZH2(42-68)AC, breast (MDA-MB231) and prostate (DU145) cancer cell lines were treated with SAH-EZH2(42-68)AC at the indicated doses for 8 days and measured for viability by Cell Titer Glo®SAH-EZH2(42-68)AC was added to the culture medium once every other day. […] We further tested the anti-proliferative effects of SAH-EZH2(42-68)AC on a Ewing Sarcoma cell line (TC71) and neuroblastoma cell line (Kelly). The cells were treated with SAH-EZH2(42-68)AC at the indicated doses for 6 days on an every other day schedule and then measured for viability using Cell Titer Glo®. […] To test the anti-proliferative effect on chronic myelogenous leukemia, SAH-EZH2(42-68)AC was added to K562 cells at 10 μM every other day and viability was measured at days 2, 4, 6, and 10 using Cell Titer Glo®. […] To assess the anti-proliferative effects of SAH-EZH2(42-68)AC on androgen-dependent and advanced androgen-independent prostate cancer, SAH-EZH2(42-68)AC was added to cell culture every other day at the indicated doses and viability measured using Cell Titer Glo®.

Kelly = assay: Viability of neuroblastoma cell line Kelly, Cell Titer Glo; type: cell-based; details: 6 days, every other day
Procedure: as §5

K562 cells = assay: Viability of K562 chronic myelogenous leukemia cells, Cell Titer Glo; type: cell-based; details: 10 μM every other day; days 2, 4, 6 and 10
Procedure: as §5

Abl = assay: Viability of androgen independent prostate cancer cells Abl, Cell Titer Glo; type: cell-based; details: every other day, read-out: IC50 for growth
Procedure: as §5

22Rv1 = assay: Viability of androgen independent prostate cancer cells 22Rv1, Cell Titer Glo; type: cell-based; details: 22Rv1, every other day; read-out: IC50 for growth
Procedure: as §5

LNCaP cells = assay: Viability of androgen-dependent LNCaP cells, Cell Titer Glo; type: cell-based; details: every other day
Procedure: as §5

MLL-AF9 leukemia cells = assay: Apoptosis by Annexin V/7-AAD flow cytometry; type: cell-based, mouse; details: positive control, 2 μM, 48 h
Procedure: Cell Proliferation, Apoptosis, and Cell Cycle Analyses: To monitor the effect of SAH-EZH2 peptides on cell proliferation, MLL-AF9 cells were seeded in 48 well plates at densities of 2×10^5 cells per well in 150 μl of AF9 media and treated with SAH-EZH2 peptides (10 μM) twice daily. Cells were counted every other day using a hematocytometer. To evaluate apoptosis induction, the cells were stained with Annexin V5-PE and 7-AAD after 8 or 16 days of treatment with SAH-EZH2 peptides. Camptothecin (Biovision) was used as a positive control (2 μM, 48 h). Cells were analyzed using a BD FACScaliber and data was processed using Flowjo software. For cell cycle analysis, cells were stained with propidium iodide (BD Biosciences) after 4 or 8 days of treatment with SAH-EZH2 peptides. Cells were analyzed using a BD FACSCalibur and data processed using Modfit software.

T1 sequence (O75530 whole entry, species assumed): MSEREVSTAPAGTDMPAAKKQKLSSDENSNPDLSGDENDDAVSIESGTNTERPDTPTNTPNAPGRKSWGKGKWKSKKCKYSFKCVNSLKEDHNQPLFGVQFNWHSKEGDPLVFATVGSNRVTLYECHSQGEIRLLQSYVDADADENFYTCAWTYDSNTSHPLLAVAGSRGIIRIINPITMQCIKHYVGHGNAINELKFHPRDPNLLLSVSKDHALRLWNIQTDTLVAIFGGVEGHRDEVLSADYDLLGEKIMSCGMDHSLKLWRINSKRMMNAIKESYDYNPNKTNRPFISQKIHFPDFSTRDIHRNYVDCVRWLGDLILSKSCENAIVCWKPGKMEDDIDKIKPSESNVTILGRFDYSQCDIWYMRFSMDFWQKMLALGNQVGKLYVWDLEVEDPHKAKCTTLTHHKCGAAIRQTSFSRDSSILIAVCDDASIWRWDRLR
T2 sequence (O75530 whole entry): as the sequence (O75530 whole entry, species assumed) above

Compound: SBFSSNRXKILXRTEILNQEWKQRRIQPV (SEQ ID NO: 3) (S[Nle]FSSNR[S5]KIL[S5]RTEILNQEWKQRRIQPV; staple 8-12) [SAH-EZH2A(40-68)]
- EED-binding activity by fluorescence polarization (EED [1]): most potent dose-responsive EED-binding activities

Compound: FSSNRXKILXRTEILNQEWKQRR (SEQ ID NO: 19) (FSSNR[S5]KIL[S5]RTEILNQEWKQRR; staple 6-10) [SAH-EZH2A(42-64)]
- EED-binding activity by fluorescence polarization (EED [1]): no appreciable engagement
- Engagement of HA-EED by anti-FITC pull down (HA-EED): no appreciable engagement

Compound: CC[C@H](C)n1cc(C)c2c(C(=O)NCc3c(C)cc(C)[nH]c3=O)cc(-c3ccc(N4CCNCC4)nc3)cc21 [GSK126]
- Expression of macrophage lineage-specific markers (Ace1, Adam8 and Fcer1a): increase expression of Fcerla
- Expression of CD133 (CD133): decreased the expression
- Viability of MLL-AF9 cells (MLL-AF9): decreased the viability
- Viability of 32D cells (32D): decreased the viability

Compound: QKILERTEILNQEWKQRR (SEQ ID NO: 11) [EZH2(47-64), reference compound]
- Displacement of FITC-labeled EZH2(42-68) peptide from EED (EED [2]): non-binding

Compound: FSSNRXKILXRTXILNXEWKQRRIQPV (SEQ ID NO:56) (FSSNR[S5]KIL[S5]RT[S5]ILN[S5]EWKQRRIQPV; staple 6-10, 13-17) [SAH-EZH2(42-68)AC]
- Anti-proliferative effect on MDA-MB231 [3]: enhanced dose-dependent anti-proliferative effects compared to SAH-EZH2 treatment
- Anti-proliferative effect on DU145 [4]: enhanced dose-dependent anti-proliferative effects compared to SAH-EZH2 treatment
- Displacement of FITC-labeled EZH2(42-68) peptide from EED (EED [2]): two times more efficiently than SAH-EZH2
- Anti-proliferative effect on TC71 (TC71): noticeable anti-proliferative effects
- Anti-proliferative effect on Kelly (Kelly): noticeable anti-proliferative effects
- Proliferation of K562 cells (K562 cells): decreased proliferation of K562 cells in a dose-responsive manner
- IC50 (Abl): < 1 µM
- IC50 (22Rv1): < 1 µM
- Anti-proliferative activity on LNCaP (LNCaP cells): anti-proliferative activity in each case

Compound: SAH-EZH2B(40-68): stapled EZH2(40-68) peptide with the B-positioned staple; probably position 'C' (54-58) of FIG. 2, SEQ ID NO: 5 (S[Nle]FSSNRQKILERT[S5]ILN[S5]EWKQRRIQPV; staple 15-19)
- EED-binding activity by fluorescence polarization (EED [1]): most potent dose-responsive EED-binding activities

Compound: SAH-EZH2B(42-64): foreshortened stapled EZH2(42-64) peptide with the B-positioned staple; probably position 'C' of FIG. 2, SEQ ID NO: 20 (FSSNRQKILERT[S5]ILN[S5]EWKQRR; staple 13-17)
- EED-binding activity by fluorescence polarization (EED [1]): no appreciable engagement
- Engagement of HA-EED by anti-FITC pull down (HA-EED): no appreciable engagement

Compound: CC[C@@]1(O)C(=O)OCc2c1cc1n(c2=O)Cc2cc3ccccc3nc2-1 [camptothecin]
- Apoptotic effect (MLL-AF9 leukemia cells): robust apoptotic effect
